This passage reports IC50 results from ChEMBL document CHEMBL4219256, “Design, Synthesis, and Biological Evaluation of 4-Quinoline Carboxylic Acids as Inhibitors of Dihydroorotate Dehydrogenase” (J Med Chem, 2018).

Molecules are shown by their SMILES. Bounds are passed on as bounds.

Test [1] relates to MIA PaCa-2. In words: Antiproliferative activity against human MIAPaCa2 cells after 72 hrs by MTT assay. The format is functional, cell-based. Background: Formazan colour is commonly taken as a measure of viable cells.
In test [2] the test system is HCT-116. In words: Antiproliferative activity against human HCT116 cells over-expressing DHODH after 72 hrs by MTT assay. The format is functional, cell-based.
Test [3] has as its target Dihydroorotate dehydrogenase (quinone), mitochondrial (Homo sapiens, UniProt Q02127).
Description: Inhibition of DHODH (unknown origin) expressed in Escherichia coli Rosetta2(DE3) assessed as reduction of DCIP using dihydroorotate as substrate preincubated for 30 mins followed by substrate addition in presence of CoQ10 measured after 1 hr

Chain of Dihydroorotate dehydrogenase (quinone), mitochondrial (Q02127 whole entry): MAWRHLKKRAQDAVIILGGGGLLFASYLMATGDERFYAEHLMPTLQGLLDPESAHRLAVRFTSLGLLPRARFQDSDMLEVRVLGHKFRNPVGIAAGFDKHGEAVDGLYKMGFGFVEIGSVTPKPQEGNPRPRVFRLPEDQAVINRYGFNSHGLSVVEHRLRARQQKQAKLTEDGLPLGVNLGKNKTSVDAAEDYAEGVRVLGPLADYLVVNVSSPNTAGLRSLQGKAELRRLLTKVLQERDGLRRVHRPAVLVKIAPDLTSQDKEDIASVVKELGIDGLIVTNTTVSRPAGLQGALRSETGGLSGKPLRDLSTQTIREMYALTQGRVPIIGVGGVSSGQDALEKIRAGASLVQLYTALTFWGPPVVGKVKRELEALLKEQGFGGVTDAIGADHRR

In general, IC50 refers to the concentration at which inhibition is half-maximal. `Cc1ccncc1-c1ccc(-c2cc(C(=O)O)c3ccccc3n2)cc1`: the concentration for half-maximal inhibition (IC50) was found to be 17.9 µM in test [1] and 10.8 µM in test [2].
`CC(C)Cc1ccc(-c2cc(C(=O)O)c3ccccc3n2)cc1`: in test [1], the 50% inhibitory concentration (IC50) is 14.5 µM.
Consider `COC(=O)c1cc(-c2ccc(N3CCCCC3)cc2)nc2ccccc12`, for which the IC50 was 31.8 µM in test [1], more than 200 µM in test [3] and 38.2 µM in test [2].
Take `COc1ccccc1-c1ccc(-c2cc(C(=O)O)c3ccccc3n2)cc1`: the IC50 in test [1] came out at 7.45 µM; in test [2], 2.85 µM.
For `COC(=O)c1cc(-c2ccc(-c3cccnc3)cc2)nc2ccccc12`, the half-inhibitory concentration (IC50) in test [1] was 6.43 µM; in test [3], more than 200 µM; in test [2], 6.15 µM.
In the case of `Cc1ccc(-c2ccc(-c3nc4ccc(Cl)cc4c(C(=O)O)c3C)cc2)c(Cl)n1`, the figures for the IC50 in test [1] and in test [2] were 7.56 µM and 2.71 µM, respectively.
With `O=C(O)c1cc(-c2ccc(-c3ccc(F)nc3)cc2)nc2ccccc12`, the IC50 in test [2] is 16.8 µM.
`O=C(O)c1cc(-c2ccc(-c3ccccn3)cc2)nc2ccccc12`: the IC50 in test [1] came out at 49.3 µM; in test [2], 39.6 µM.
The molecule `COC(=O)c1cc(-c2ccc(-c3cnccc3C(F)(F)F)cc2)nc2ccccc12` returned a concentration for half-maximal inhibition (IC50) in test [3] of more than 50 µM.
As for `Cc1c(-c2ccc(-c3cccnc3Cl)cc2)nc2ccc(Cl)cc2c1C(=O)O`, the IC50 in test [1] amounted to 4.73 µM; in test [2], 4.36 µM.
Consider `O=C(O)c1cc(-c2ccc(-c3cccnc3F)cc2)nc2ccccc12`, for which the IC50 in test [1] worked out at 32.1 µM; in test [3], 1.42 µM; in test [2], 11.2 µM.
As to `Cc1ccc(-c2ccc(-c3nc4ccccc4c(C(=O)O)c3C)cc2)c(Cl)n1`, the values for the concentration for half-maximal inhibition (IC50) in test [1] and in test [2] were 7.7 µM and 15.5 µM, respectively.
Regarding `Cc1c(-c2ccc(-c3cccnc3Cl)cc2)nc2cnc(C(F)(F)F)cc2c1C(=O)O`, the concentration for half-maximal inhibition (IC50) came to 21.5 µM in test [1], 0.201 µM in test [3] and 25.7 µM in test [2].
Consider `O=C(O)c1cc(-c2ccc(-c3cnccc3C(F)(F)F)cc2)nc2ccccc12`, for which the results for the 50% inhibitory concentration (IC50) in test [1] and in test [2] were 8.71 µM and 3.87 µM, respectively.
As to `CC(C)c1ccc(-c2cc(C(=O)O)c3ccccc3n2)cc1`, the IC50 in test [1] was 24.2 µM; in test [2], 19.1 µM.
The corresponding values for `Cc1c(-c2ccc(-c3cccnc3F)cc2)nc2ccc(Cl)cc2c1C(=O)O` are 14.7 µM and 5.43 µM.
The corresponding values for `Cc1c(-c2ccc(-c3cccnc3F)cc2)nc2ccc(F)cc2c1C(=O)O` are 23.6 µM and 5.71 µM.
Regarding `Cc1c(-c2ccc(-c3ccccc3)cc2)nc2ccccc2c1C(=O)O`, the half-maximal inhibitory concentration (IC50) in test [1] came to 5.29 µM; in test [2] it was 8.51 µM.
In the case of `O=C(O)c1cc(-c2ccc(-c3cccnc3C(F)(F)F)cc2)nc2ccccc12`, the IC50 in test [1] is 8.84 µM; in test [2], 4.63 µM.
The matching figures for `Cc1ccc(-c2ccc(-c3cc(C(=O)O)c4ccccc4n3)cc2)c(Cl)n1`: 14.2 µM and 5.13 µM.
In test [1], `COc1ncccc1-c1ccc(-c2cc(C(=O)O)c3ccccc3n2)cc1` showed an IC50 of 13.6 µM.
Consider `O=C(O)c1cc(-c2ccc(N3CCCCC3)cc2)nc2ccccc12`, for which the half-maximal inhibitory concentration (IC50) in test [1] worked out at 16.7 µM; in test [2], 7.23 µM.
In the case of `O=C(O)c1cc(-c2ccc(-c3cccnc3)cc2)nc2ccccc12`, the IC50 amounted to 32.8 µM in test [1] and 20.9 µM in test [2].
The corresponding values for `Cc1ccc(-c2ccc(-c3nc4ccc(F)cc4c(C(=O)O)c3C)cc2)c(F)n1` are 33.8 µM and 33.7 µM.
Take `O=C(O)c1cc(-c2ccc(-c3ccncc3)cc2)nc2ccccc12`: the concentration for half-maximal inhibition (IC50) in test [1] is 68.1 µM; in test [2], 33.6 µM.
Turning to `Cc1c(-c2ccc(-c3cccnc3F)cc2)nc2ccccc2c1C(=O)O`, the IC50 in test [1] was 13.4 µM; in test [2], 21.3 µM.
The matching figures for `Cc1ccc(-c2ccc(-c3nc4ccccc4c(C(=O)O)c3C)cc2)c(F)n1`: 31.6 µM and 23.9 µM.
The matching figures for `Cc1ccc2nc(-c3ccc(-c4cccnc4Cl)cc3)c(C)c(C(=O)O)c2c1`: 8.29 µM and 11.1 µM.
